The results in this text go back to patent publication US20040147606A1, “Medicinal compositions” (priority 2001, published 2004).

For one assay, the system named is goblet cells. Briefly: Test for confirming synergetic expectorant effect: number of goblet cells in the air tube after intratracheal LPS. In kind it is in vivo, Fischer (F334) rats. Particulars: for Number of goblet cells: counted three days after LPS; for expectorant effect (number of goblet cells), result in words: summary of Table 1. An excerpt: Improvement of the expectorant effect by using fudosteine and an antipyretic/analgesic in combination was confirmed by the method described below. Seven 12-week-old male Fischer ([…]) rats for one group were used as test animals. The rats were anesthetized with pentobarbital and their skin was disinfected using the Isodine solution for surgery. The trachea of the rats was exposed by midline incision. The injection needle ([…], Hamilton) attached to a Hamilton injection syringe was inserted from the pharynx to inject lipopolysaccharide (LPS, 10 μg/500 μl) into the air tube. The samples of which the components and dose are shown in Table 1 were dissolved or suspended in a 0.5% CMC-Na solution. The solution or suspension was orally administered to the rats three times in total, specifically, 30 minutes before administering LPS, 24 hours after administering LPS, and 48 hours after administering LPS. Three days after administering LPS, the rats were bled to death by cutting the abdominal aorta under pentobarbital anesthesia. A part of the air tube and bronchial tube was removed and fixed with a 10% neutral buffered formalin solution. The fixed bronchial tube was embedded in paraffin according to a conventional method. The air tube was cut into slices in the cross-section. The slices were stained with alcian blue/PAS (AB/PAS). The AB/PAS stained samples of each air tube were microscopically examined to measure the number of goblet cells according to the reported procedure (Enviromn. Tixicol. Pharmacol., vol. 5, p. 173, 1998).

The test system of another assay is Wistar rats. Nature of the assay: Test for confirming synergetic antiinflammatory effect: carrageenan footpad edema. Particulars: for Edema ratio (%): four hours after carrageenan; for antiinflammatory effect, result in words: summary of Table 2. Type of assay: in vivo. As to the method:
Improvement on the antiinflammatory effect by using fudosteine and an antipyretic/analgesic in combination was confirmed by the method described below. Five five-week-old male Wistar rats for one group were used as test animals. The samples of which the components and dose are shown in Table 2 were dissolved or suspended in a 0.5% CMC-Na solution. The solution or suspension was orally administered to the rats once a day in five consecutive days. Two hours after the administration on the last administration day, 0.1 ml of an inflammatory (carrageenan) was hypodermically injected into the right hind footpad of the rats. The limb volume of the rats was measured four hours after injecting the inflammatory. The edema ratio was calculated based on the limb volume before injecting the inflammatory. The rats were coated with a licking prevention hood, followed by measuring the right hind limb volume using a plethysmometer (manufactured by Ugo Basile).
(Carrageenan injected into the paw causes an acute inflammation.)

[1] abbreviates: 100 mg/kg orally once a day for five days.

Molecules are shown by their SMILES.

For the compound `CC(=O)Nc1ccc(O)cc1` [Acetaminophen, acetaminophen], the “Number of goblet cells” value is 125.7 ± 2.4 with goblet cells (100 mg/kg orally, three times) and 122.9 ± 1.7 with goblet cells (200 mg/kg orally, three times). Further, the “expectorant effect (number of goblet cells), result in words” value (“expectorant effect” for short) in the assay on goblet cells was “did not exhibit an expectorant effect”. Further, the entries for the “Edema ratio (%)” value in the assay on Wistar rats (setting [1]) and in the assay with Wistar rats (200 mg/kg orally once a day for five days) were 70.6 ± 0.68 % and 60.6 ± 0.88 ^b) %, respectively. Besides, the “antiinflammatory effect, result in words” value in the assay with Wistar rats is “dose-dependent antiinflammatory effect”.
Take `CC(C)Cc1ccc(C(C)C(=O)O)cc1` (centres unmarked) [Ibuprofen, ibuprofen]: the “Number of goblet cells” value in the assay with goblet cells (50 mg/kg orally, three times) is 124.9 ± 1.8; in the assay on goblet cells (100 mg/kg orally, three times), 124.3 ± 2.0. For the same compound, the “expectorant effect” value with goblet cells is “did not exhibit an expectorant effect”. In addition, the results for the “Edema ratio (%)” value in the assay on Wistar rats (50 mg/kg orally once a day for five days) and in the assay with Wistar rats (setting [1]) were 70.6 ± 0.89 % and 60.6 ± 0.79 ^a) %, respectively. The “antiinflammatory effect, result in words” value with Wistar rats is on record as “dose-dependent antiinflammatory effect”.
Consider `N[C@@H](CSCCCO)C(=O)O` [Fudosteine, S-(3-hydroxypropyl)-L-cysteine], for which, in the assay with goblet cells (30 mg/kg orally, three times (30 min before, 24 h and 48 h after LPS)), the “Number of goblet cells” value worked out at 75.7 ± 1.3. The “expectorant effect” value in the assay with goblet cells is “exhibited an expectorant effect”.
